This passage reports Ratio IC50, Activity and IC50 results from ChEMBL document CHEMBL1152129, “Quantitative structure-activity relationship and complex network approach to monoamine oxidase A and B inhibitors” (J Med Chem, 2008).

One data set is filed under the species Homo sapiens. The data set can be described thus: Selectivity ratio of IC50 for human recombinant MAOA to IC50 for human recombinant MAOB.
The target in data set [1] is T1, Amine oxidase [flavin-containing] B (Homo sapiens, UniProt P27338).
T1 sequence (P27338 whole entry): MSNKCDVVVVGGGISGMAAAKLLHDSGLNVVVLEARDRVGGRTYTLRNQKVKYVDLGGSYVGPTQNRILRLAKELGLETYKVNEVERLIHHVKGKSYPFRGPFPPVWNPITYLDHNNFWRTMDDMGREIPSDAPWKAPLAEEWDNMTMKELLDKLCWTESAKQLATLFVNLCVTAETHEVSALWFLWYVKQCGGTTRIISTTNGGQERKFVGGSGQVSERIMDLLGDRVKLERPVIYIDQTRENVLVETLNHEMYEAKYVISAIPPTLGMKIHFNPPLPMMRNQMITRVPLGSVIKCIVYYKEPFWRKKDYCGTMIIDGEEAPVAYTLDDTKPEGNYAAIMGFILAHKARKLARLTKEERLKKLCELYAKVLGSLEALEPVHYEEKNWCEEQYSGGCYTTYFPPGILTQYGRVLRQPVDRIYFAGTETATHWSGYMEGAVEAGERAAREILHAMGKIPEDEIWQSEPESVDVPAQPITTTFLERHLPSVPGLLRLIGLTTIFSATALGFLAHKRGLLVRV
The data set can be described thus: Inhibition of human recombinant MAOB at 50 uM by fluorimetric method.

The target of data set [2] is T2, Amine oxidase [flavin-containing] A (Homo sapiens, UniProt P21397).
T2 sequence (P21397 whole entry): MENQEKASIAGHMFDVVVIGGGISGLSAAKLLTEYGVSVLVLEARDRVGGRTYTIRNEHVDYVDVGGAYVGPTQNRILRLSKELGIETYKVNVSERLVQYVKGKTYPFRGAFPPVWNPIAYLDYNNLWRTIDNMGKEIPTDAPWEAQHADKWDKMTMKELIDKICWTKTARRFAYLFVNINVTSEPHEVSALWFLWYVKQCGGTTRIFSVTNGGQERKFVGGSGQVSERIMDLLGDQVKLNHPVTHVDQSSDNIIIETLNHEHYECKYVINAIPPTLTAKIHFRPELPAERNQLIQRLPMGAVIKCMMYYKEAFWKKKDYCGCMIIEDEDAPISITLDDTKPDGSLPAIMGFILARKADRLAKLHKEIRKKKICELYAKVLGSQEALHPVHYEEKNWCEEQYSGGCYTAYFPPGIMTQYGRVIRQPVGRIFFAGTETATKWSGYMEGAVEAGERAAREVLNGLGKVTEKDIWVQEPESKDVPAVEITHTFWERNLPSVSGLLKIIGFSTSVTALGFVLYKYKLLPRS
The data set can be described thus: Inhibition of human recombinant MAOA by fluorimetric method.

Data set [3] concerns the target T1, Amine oxidase [flavin-containing] B.
Description: Inhibition of human recombinant MAOB by fluorimetric method
Data set [4] shares this target. The data set can be described thus: Inhibition of human recombinant MAOB at 100 uM by fluorimetric method.
The target of data set [5] is T2, Amine oxidase [flavin-containing] A. The data set can be described thus: Inhibition of human recombinant MAOA at 100 uM by fluorimetric method.
Data set [6] addresses T1, Amine oxidase [flavin-containing] B. The data set can be described thus: Inhibition of human liver MAOB.
Data set [7] deals with T2, Amine oxidase [flavin-containing] A. The data set can be described thus: Inhibition of human liver MAOA.

For orientation: IC50 means the concentration at which inhibition is half-maximal. Turning to `COc1c(OC2CCCCC2=O)ccc2c(C)cc(=O)oc12` (configuration not stated), the Ratio IC50 in the data set filed under Homo sapiens is less than 0.31. Moreover, in data set [1], the Activity result is on record as “Not Active”. Moreover, in data set [2], the IC50 is 15400 nM.

As for `Cc1cc(=O)oc2cc(OC3CCCC3=O)ccc12` (configuration not stated), in the data set listed under Homo sapiens, the Ratio IC50 stood at 0.0073. The values for the IC50 in data set [3] and in data set [2] were 5570 nM and 40.5 nM, respectively.

Consider `COc1c(O)ccc2cc(N)c(=O)oc12`, for which the Activity entry in data set [4] and in data set [5] was “Not Active” throughout.

As for `COc1cc(O)cc2oc(=O)ccc12`, the Activity result in data set [4] and in data set [5] was “Not Active” each time.

In the case of `Cc1cc(=O)oc2c(C)c(O)ccc12`, the midpoint of inhibition in data set [3], the IC50, lay at 71300 nM. Further, the Activity entry in data set [5] is on record as “Not Active”.

Consider `COc1cc(OC2CCCCC2=O)cc2oc(=O)ccc12` (configuration not stated), for which the Ratio IC50 in the data set filed under Homo sapiens is less than 0.41. In addition, the Activity entry in data set [1] is reported as “Not Active”. Besides, the IC50 in data set [2] came out at 20400 nM.

On to `COc1c(OCC(C)=O)ccc2c3c(c(=O)oc12)CCC3`, for which the Ratio IC50 in the data set filed under Homo sapiens worked out at 0.0093. For the same compound, the IC50 turned out to be 13000 nM in data set [3] and 121 nM in data set [2].

For the compound `Cc1cc(=O)oc2c(C)c3oc4c(c3cc12)CCCC4`, the Activity entry in data set [4] and in data set [5] was “Not Active” each time.

As to `Cc1c(O)ccc2c3c(c(=O)oc12)CCC3`, the Activity result in data set [4] and in data set [5] was “Not Active” in each case.

With `COc1c(OCC(C)=O)ccc2c3c(c(=O)oc12)CCCC3`, the Ratio IC50 in the data set filed under Homo sapiens is 0.033. The values for the IC50 in data set [3] and in data set [2] were 12100 nM and 396 nM, respectively.

For the compound `C=C(Br)COc1ccc2c3c(c(=O)oc2c1C)CCC3`, the Ratio IC50 in the data set filed under Homo sapiens stood at 110. The IC50 in data set [3] stood at 1.18 nM; in data set [2] it was 130 nM.

Turning to `C=C(Br)COc1ccc2c3c(c(=O)oc2c1C)CCCC3`, the Ratio IC50 in the data set listed under Homo sapiens is 2.94. Also, the IC50 came to 236 nM in data set [3] and 695 nM in data set [2].

Regarding `CC(=O)COc1ccc2c3c(c(=O)oc2c1C)CCC3`, the Ratio IC50 in the data set filed under Homo sapiens amounted to 1.42. Besides, the IC50 came out at 165 nM in data set [3] and 235 nM in data set [2].

Regarding `COc1c(O)ccc2c3c(c(=O)oc12)CCCC3`, in the data set listed under Homo sapiens, the Ratio IC50 is more than 1.99. For the same compound, in data set [3], the IC50 was 50200 nM. Besides, the Activity entry in data set [5] is given as “Not Active”.

As to `COc1cc(OCC(C)=O)cc2oc(=O)ccc12`, the Ratio IC50 in the data set filed under Homo sapiens is more than 2.27. For the same compound, in data set [3], the IC50 was 44100 nM. Moreover, the Activity result in data set [5] is listed as “Not Active”.

With `Cc1cc(=O)oc2c(C)c(OC3CCCC3=O)ccc12` (configuration not stated), the Ratio IC50 in the data set filed under Homo sapiens came to 0.00067. Besides, the IC50 in data set [3] was 10600 nM; in data set [2], 7.16 nM.

For `Cc1cc(=O)oc2c(C)c(OC3CCCCC3=O)ccc12` (configuration not stated), the Ratio IC50 in the data set filed under Homo sapiens worked out at 0.1. Further, the values for the IC50 in data set [3] and in data set [2] were 3870 nM and 400 nM, respectively.

For `C[C@H]1O[C@@H](O[C@H]2[C@@H](O)C[C@H](O[C@H]3[C@@H](O)C[C@H](O[C@H]4CC[C@@]5(C)[C@H](CC[C@@H]6[C@@H]5CC[C@]5(C)[C@@H](C7=CC(=O)OC7)CC[C@]65O)C4)O[C@@H]3C)O[C@@H]2C)C[C@H](O)[C@@H]1O` [DIGITOXIN], the Activity entry in data set [6], in data set [5] and in data set [7] was “Not Active” in each case.

On to `C[C@H]1O[C@@H](O[C@H]2[C@@H](O)C[C@H](O[C@H]3[C@@H](O)C[C@H](O[C@H]4CC[C@@]5(C)[C@H](CC[C@@H]6[C@@H]5C[C@@H](O)[C@]5(C)[C@@H](C7=CC(=O)OC7)CC[C@]65O)C4)O[C@@H]3C)O[C@@H]2C)C[C@H](O)[C@@H]1O` [DIGOXIN], for which the Activity entry in data set [6], in data set [5] and in data set [7] was “Not Active” each time.

Take `Cc1cc(=O)oc2cc(O)ccc12` [HYMECROMONE]: in data set [3], the IC50 came out at 80400 nM. For the same compound, the Activity result in data set [5] is reported as “Not Active”.

In the case of `CC(C)(S)[C@@H](N)C(=O)O` [PENICILLAMINE], the Activity result in data set [6], in data set [5] and in data set [7] was “Not Active” in each case.
